Data set [1] deals with patients with pulmonary arterial hypertension. Kind of data set: Clinical pilot study of iloprost bolus inhalation (Example 3). The data set is classed as in vivo, human. The protocol: A clinical pilot study to evaluate the safety and tolerability of nebulised iloprost administered by bolus inhalation according to the invention was conducted with 4 patients. Eligible were male and female patients with pulmonary arterial hypertension in the age from 18 to 70 years having a mean pulmonary arterial blood pressure (PAP) higher than 25 mm Hg, a pulmonary vascular resistance (PVR) higher than 240 dyn*s*cm^−5, a central venous pressure (CVP) higher than 3 mm Hg, and a pulmonary capillary wedge pressure (PCWP) lower than 12 mm Hg. Excluded were patients with a contraindication for cardiac catheterisation (such as coagulopathy, bleeding disorder, acute infection, severe cardiac dysrhythmia), pregnancy, systemic systolic blood pressure below 110 mm Hg, highly impaired ventricular function with cardiac index below 1.8 L/min*m^2, and known lack of pulmonary vascular reactivity. Patients were monitored by ECG, pulse oxymetry, and non-invasive blood pressure measurement. An intracardiac catheter was introduced into the distal pulmonary artery to measure PAP, CVP, PCWP, and cardiac output. Also measured were the heart rate, systemic arterial pressure (SAP), systemic vascular resistance (SVR), central arterial and venous blood gases. After the initial determination of all parameters the reactivity of the pulmonary vasculature to oxygen (2 to 4 L/min) and nitric oxide (20 ppm) was tested. Subsequently, patients inhaled a single dose of 2.5 μg of nebulised iloprost in two consecutive breaths, using the same inhalation system and iloprost composition as described in Example 1. Haemodynamic parameters and clinical condition of the patients were assessed before and up to 30 minutes after inhalation. In the absence of adverse effects, a second inhalation manoeuvre with 4 consecutive breaths corresponding to a dose 5 μg iloprost was performed, again followed by an observation period of at least 30 minutes.

Data set [2] has as its system patients suffering from pulmonary hypertension (PH). Kind of data set: Iloprost bolus inhalation in six further patients (Example 4). The data set is classed as in vivo, human. As to conditions: bolus inhalation as in Example 3. As for the experimental part: Six further patients suffering from pulmonary hypertension (PH) were treated with iloprost bolus inhalation as in Example 3.

For data set [3] the following is noted: cited from earlier work.
Where [4] appears, read: bolus inhalation of 2.5 μg and 5 μg, versus slow inhalation of iloprost.

“Also recorded” adds a separate entry of the source. Read-outs that look alike come from different tables or passages of the source.

As for `CC#CCC(C)[C@H](O)/C=C/[C@@H]1[C@H]2C/C(=C/CCCC(=O)O)C[C@H]2C[C@H]1O` (stereo partly drawn) [iloprost, 5-{(E) -(1S,5S,6R,7R)-7-hydroxy-6[(E)-(3S, 4RS)-3-hydroxy-4-methyl-1-octen-6-inyl]-bi-cyclo[3.3.0]octan-3-ylidene}pentanoic acid], the “mean pulmonary arterial pressure (PAP) after bolus inhalation versus baseline, p” value in data set [1] (FIG. 1, n=4, Mann-Whitney rank-sum test) is under 0.05. Moreover, in data set [1] (FIG. 3, n=4, Mann-Whitney rank-sum test), the “mean systemic arterial pressure (SAP) after bolus inhalation versus baseline, significance” value is “not significant”. Also, the “systemic vascular resistance (SVR) after bolus inhalation versus baseline, significance” value in data set [1] (FIG. 4, n=4, Mann-Whitney rank-sum test) is “not significant”. In data set [1] (bolus inhalation of 2.5 μg (2 breaths) and 5 μg (4 breaths), 4 PAH patients), the “tolerability of the treatment” value is on record as “all patients tolerated the treatment well; also recorded: well-tolerated by patients”. Moreover, the “systemic side effects (SAP and SVR changes)” value in data set [1] (setting [4]) is listed as “comparable to those observed after conventional iloprost treatment”. Also, the “therapeutic pulmonary vascular effects (PAP and PVR changes)” value in data set [1] (setting [4]) is listed as “comparable to those observed after conventional iloprost treatment”. In addition, the adverse effects result in data set [2] (six PH patients) was “no adverse effects were observed other than the SAP and SVR changes which were mild”. Moreover, the pulmonary vascular effects result in data set [2] (six PH patients (PAH, iPAH, portopulmonary, CTEPH)) is recorded as “very comparable to those found in Example 3”. Also, the solubility entry is given as “soluble” in data set [3] (acetone); “very slightly soluble” in data set [3] (aqueous buffer at pH 3); “very slightly soluble” in data set [3] (aqueous buffer at pH 5); “soluble” in data set [3] (aqueous buffer at pH 7); “sparingly soluble” in data set [3] (aqueous buffer pH 9); “very slightly soluble” in data set [3] (distilled water). Moreover, the solubility entry in data set [3] (ethanol), in data set [3] (ethyl acetate) and in data set [3] (methanol) was “soluble” each time. Besides, the aqueous solubility entry in data set [3] (water) was “rather poor”.
